Experimental data: patent US20050282755A1, “Compositions having antimicrobial activity and uses thereof” (priority 2004, published 2005)
Values after ≈ are worked out from the molar mass of the structure shown. Non-standard residues stand in square brackets, D forms with d. Residues, ends and D or L forms follow the SMILES beside them. βAla = NCCC(=O)O

Tests used:
[1] = system: Salmonella dublin (Lane); assay: MIC, NCCLS M7-A6 broth microdilution (Table 9, no superscript); format: cell-based
Description: (§1) Cation-adjusted Mueller Hinton broth was used in the broth microdilution method. In brief, a log-phase bacterial suspension was used to inoculate wells of a 96-well plate so that the final inoculum for each well contained 5×10^5 to 1×10^6 CFU/milliliter. […] Plates were incubated overnight at 37° C. The lowest concentration of peptide that contained no visible growth as evidenced by a lack of turbidity when compared to the control (no peptide) was determined as the MIC. Unless otherwise noted, MIC values listed in Table 9 utilized this method of MIC determination.

[2] = system: Staphylococcus aureus ATCC 29213; assay: MIC, NCCLS M7-A6 broth microdilution, cation-adjusted Mueller Hinton broth (Table 9, no superscript); format: cell-based; conditions: ATCC 29213
Description: as §1

SMILES: CSCC[C@H](NC(=O)[C@H](Cc1ccccc1)NC(=O)[C@H](CC(N)=O)NC(=O)[C@H](CCCNC(=N)N)NC(=O)[C@H](CO)NC(=O)[C@H](Cc1c[nH]c2ccccc12)NC(=O)[C@H](CC(=O)O)NC(=O)[C@H](CCCNC(=N)N)NC(=O)[C@H](Cc1c[nH]c2ccccc12)NC(=O)[C@H](CCCNC(=N)N)NC(=O)[C@H](CO)NC(=O)[C@H](CCCNC(=N)N)NC(=O)CNC(=O)[C@@H](NC(=O)[C@H](CCCNC(=N)N)NC(=O)[C@H](CO)NC(=O)[C@@H](NC(=O)[C@H](CCCNC(=N)N)NC(=O)[C@@H](NC(C)=O)[C@@H](C)O)C(C)C)[C@@H](C)O)C(=O)N[C@@H](CCCNC(=N)N)C(=O)N[C@@H](C)C(=O)N[C@@H](C)C(=O)N[C@@H](CCCCN)C(=O)N[C@@H](CCCCN)C(=O)N[C@@H](CCCCN)C(=O)N[C@@H](CCCCN)C(N)=O [Peptide 5] (Ac-TRVSRTGRSRWRDWSRNFMRAAKKKK-NH2)
- MIC S. dublin [1]: >64 µg/mL
- MIC S. aureus [2]: >64 µg/mL

SMILES: CSCC[C@H](NC(=O)[C@H](Cc1ccccc1)NC(=O)[C@H](CC(N)=O)NC(=O)[C@H](CCCNC(=N)N)NC(=O)[C@H](CO)NC(=O)[C@H](Cc1c[nH]c2ccccc12)NC(=O)[C@H](CC(=O)O)NC(=O)[C@H](CCCNC(=N)N)NC(=O)[C@H](Cc1c[nH]c2ccccc12)NC(=O)[C@H](CCCNC(=N)N)NC(=O)[C@H](CO)NC(=O)[C@H](CCCNC(=N)N)NC(=O)CNC(=O)[C@@H](NC(=O)[C@H](CCCNC(=N)N)NC(=O)[C@H](CO)NC(=O)[C@@H](NC(=O)[C@H](CCCNC(=N)N)NC(=O)[C@@H](NC(C)=O)[C@@H](C)O)C(C)C)[C@@H](C)O)C(=O)N[C@@H](CCCNC(=N)N)C(=O)N[C@@H](C)C(=O)N[C@@H](C)C(=O)N[C@@H](CCCCN)C(=O)N[C@@H](CCCCN)C(=O)N[C@@H](CCCCN)C(=O)N[C@@H](CCCCN)C(=O)N[C@@H](CCCCN)C(N)=O [Peptide 6] (Ac-TRVSRTGRSRWRDWSRNFMRAAKKKKK-NH2)
- MIC S. dublin [1]: >64 µg/mL
- MIC S. aureus [2]: >64 µg/mL

SMILES: CSCC[C@H](NC(=O)[C@H](Cc1ccccc1)NC(=O)[C@H](CC(N)=O)NC(=O)[C@H](CCCNC(=N)N)NC(=O)[C@H](CO)NC(=O)[C@H](Cc1c[nH]c2ccccc12)NC(=O)[C@H](CC(=O)O)NC(=O)[C@H](CCCNC(=N)N)NC(=O)[C@H](Cc1c[nH]c2ccccc12)NC(=O)[C@H](CCCNC(=N)N)NC(=O)[C@H](CO)NC(=O)[C@H](CCCNC(=N)N)NC(=O)CNC(=O)[C@@H](NC(=O)[C@H](CCCNC(=N)N)NC(=O)[C@H](CO)NC(=O)[C@@H](NC(=O)[C@H](CCCNC(=N)N)NC(=O)[C@@H](NC(C)=O)[C@@H](C)O)C(C)C)[C@@H](C)O)C(=O)N[C@@H](CCCNC(=N)N)C(=O)N[C@@H](C)C(=O)N[C@@H](C)C(=O)N[C@@H](CCCCN)C(=O)N[C@@H](CCCCN)C(=O)N[C@@H](CCCCN)C(=O)N[C@@H](CCCCN)C(=O)N[C@@H](CCCCN)C(=O)N[C@@H](CCCCN)C(N)=O [Peptide 7] (Ac-TRVSRTGRSRWRDWSRNFMRAAKKKKKK-NH2)
- MIC S. dublin [1]: >64 µg/mL
- MIC S. aureus [2]: >64 µg/mL

SMILES: CSCC[C@H](NC(=O)[C@H](Cc1ccccc1)NC(=O)[C@H](CC(N)=O)NC(=O)[C@H](CCCNC(=N)N)NC(=O)[C@H](CO)NC(=O)[C@H](Cc1c[nH]c2ccccc12)NC(=O)[C@H](CC(=O)O)NC(=O)[C@H](CCCNC(=N)N)NC(=O)[C@H](Cc1c[nH]c2ccccc12)NC(=O)[C@H](CCCNC(=N)N)NC(=O)[C@H](CO)NC(=O)[C@H](CCCNC(=N)N)NC(=O)CNC(=O)[C@@H](NC(=O)[C@H](CCCNC(=N)N)NC(=O)[C@H](CO)NC(=O)[C@@H](NC(=O)[C@H](CCCNC(=N)N)NC(=O)[C@@H](NC(=O)[C@H](C)NC(=O)[C@H](C)NC(=O)[C@H](CCCCN)NC(=O)[C@H](CCCCN)NC(=O)[C@H](CCCCN)NC(=O)[C@H](CCCCN)NC(C)=O)[C@@H](C)O)C(C)C)[C@@H](C)O)C(=O)N[C@@H](CCCNC(=N)N)C(=O)N[C@@H](C)C(=O)N[C@@H](C)C(=O)N[C@@H](CCCCN)C(=O)N[C@@H](CCCCN)C(=O)N[C@@H](CCCCN)C(=O)N[C@@H](CCCCN)C(N)=O [Peptide 8] (Ac-KKKKAATRVSRTGRSRWRDWSRNFMRAAKKKK-NH2)
- MIC S. dublin [1]: >64 µg/mL
- MIC S. aureus [2]: >64 µg/mL

SMILES: CSCC[C@H](NC(=O)[C@H](Cc1ccccc1)NC(=O)[C@H](CC(N)=O)NC(=O)[C@H](CCCNC(=N)N)NC(=O)[C@H](CO)NC(=O)[C@H](Cc1c[nH]c2ccccc12)NC(=O)[C@H](CC(=O)O)NC(=O)[C@H](CCCNC(=N)N)NC(=O)[C@H](Cc1c[nH]c2ccccc12)NC(=O)[C@H](CCCNC(=N)N)NC(=O)[C@H](CO)NC(=O)[C@H](CCCNC(=N)N)NC(=O)CNC(=O)[C@@H](NC(=O)[C@H](CCCNC(=N)N)NC(=O)[C@H](CO)NC(=O)[C@@H](NC(=O)[C@H](CCCNC(=N)N)NC(=O)[C@@H](NC(C)=O)[C@@H](C)O)C(C)C)[C@@H](C)O)C(=O)N[C@@H](CCCNC(=N)N)C(=O)N[C@@H](C)C(=O)N[C@@H](C)C(=O)N[C@@H](CCCNC(=N)N)C(=O)N[C@@H](CCCNC(=N)N)C(=O)N[C@@H](CCCNC(=N)N)C(=O)N[C@@H](CCCNC(=N)N)C(N)=O [Peptide 9] (Ac-TRVSRTGRSRWRDWSRNFMRAARRRR-NH2)
- MIC S. dublin [1]: >64 µg/mL
- MIC S. aureus [2]: >64 µg/mL

SMILES: CSCC[C@H](NC(=O)[C@H](Cc1ccccc1)NC(=O)[C@H](CC(N)=O)NC(=O)[C@H](CCCNC(=N)N)NC(=O)[C@H](CO)NC(=O)[C@H](Cc1c[nH]c2ccccc12)NC(=O)[C@H](CC(=O)O)NC(=O)[C@H](CCCNC(=N)N)NC(=O)[C@H](Cc1c[nH]c2ccccc12)NC(=O)[C@H](CCCNC(=N)N)NC(=O)[C@H](CO)NC(=O)[C@H](CCCNC(=N)N)NC(=O)CNC(=O)[C@@H](NC(=O)[C@H](CCCNC(=N)N)NC(=O)[C@H](CO)NC(=O)[C@@H](NC(=O)[C@H](CCCNC(=N)N)NC(=O)[C@@H](NC(C)=O)[C@@H](C)O)C(C)C)[C@@H](C)O)C(=O)N[C@@H](CCCNC(=N)N)C(=O)N[C@@H](C)C(=O)N[C@@H](C)C(=O)N[C@@H](CCCNC(=N)N)C(=O)N[C@@H](CCCNC(=N)N)C(=O)N[C@@H](CCCNC(=N)N)C(=O)N[C@@H](CCCNC(=N)N)C(=O)N[C@@H](CCCNC(=N)N)C(N)=O [Peptide 10] (Ac-TRVSRTGRSRWRDWSRNFMRAARRRRR-NH2)
- MIC S. dublin [1]: 64 µg/mL (≈ 17.9 µM)
- MIC S. aureus [2]: >64 µg/mL

SMILES: CSCC[C@H](NC(=O)[C@H](Cc1ccccc1)NC(=O)[C@H](CC(N)=O)NC(=O)[C@H](CCCNC(=N)N)NC(=O)[C@H](CO)NC(=O)[C@H](Cc1c[nH]c2ccccc12)NC(=O)[C@H](CC(=O)O)NC(=O)[C@H](CCCNC(=N)N)NC(=O)[C@H](Cc1c[nH]c2ccccc12)NC(=O)[C@H](CCCNC(=N)N)NC(=O)[C@H](CO)NC(=O)[C@H](CCCNC(=N)N)NC(=O)CNC(=O)[C@@H](NC(=O)[C@H](CCCNC(=N)N)NC(=O)[C@H](CO)NC(=O)[C@@H](NC(=O)[C@H](CCCNC(=N)N)NC(=O)[C@@H](NC(C)=O)[C@@H](C)O)C(C)C)[C@@H](C)O)C(=O)N[C@@H](CCCNC(=N)N)C(=O)N[C@@H](C)C(=O)N[C@@H](C)C(=O)N[C@@H](CCCNC(=N)N)C(=O)N[C@@H](CCCNC(=N)N)C(=O)N[C@@H](CCCNC(=N)N)C(=O)N[C@@H](CCCNC(=N)N)C(=O)N[C@@H](CCCNC(=N)N)C(=O)N[C@@H](CCCNC(=N)N)C(N)=O [Peptide 11] (Ac-TRVSRTGRSRWRDWSRNFMRAARRRRRR-NH2)
- MIC S. dublin [1]: 32 µg/mL (≈ 8.58 µM)
- MIC S. aureus [2]: 64 µg/mL (≈ 17.2 µM)

SMILES: CSCC[C@H](NC(=O)[C@H](Cc1ccccc1)NC(=O)[C@H](CC(N)=O)NC(=O)[C@H](CCCNC(=N)N)NC(=O)[C@H](CO)NC(=O)[C@H](Cc1c[nH]c2ccccc12)NC(=O)[C@H](CC(=O)O)NC(=O)[C@H](CCCNC(=N)N)NC(=O)[C@H](Cc1c[nH]c2ccccc12)NC(=O)[C@H](CCCNC(=N)N)NC(=O)[C@H](CO)NC(=O)[C@H](CCCNC(=N)N)NC(=O)CNC(=O)[C@@H](NC(=O)[C@H](CCCNC(=N)N)NC(=O)[C@H](CO)NC(=O)[C@@H](NC(=O)[C@H](CCCNC(=N)N)NC(=O)[C@@H](NC(=O)CCN)[C@@H](C)O)C(C)C)[C@@H](C)O)C(=O)N[C@@H](CCCNC(=N)N)C(=O)N[C@@H](C)C(=O)N[C@@H](C)C(N)=O [Peptide 18] (H-[βAla]TRVSRTGRSRWRDWSRNFMRAA-NH2)
- MIC S. dublin [1]: >64 µg/mL
- MIC S. aureus [2]: >64 µg/mL

SMILES: CSCC[C@H](NC(=O)[C@H](Cc1ccccc1)NC(=O)[C@H](CC(N)=O)NC(=O)[C@H](CCCNC(=N)N)NC(=O)[C@H](CO)NC(=O)[C@H](Cc1c[nH]c2ccccc12)NC(=O)[C@H](CC(=O)O)NC(=O)[C@H](CCCNC(=N)N)NC(=O)[C@H](Cc1c[nH]c2ccccc12)NC(=O)[C@H](CCCNC(=N)N)NC(=O)[C@H](CO)NC(=O)[C@H](CCCNC(=N)N)NC(=O)CNC(=O)[C@@H](NC(=O)[C@H](CCCNC(=N)N)NC(=O)[C@H](CO)NC(=O)[C@@H](NC(=O)[C@H](CCCNC(=N)N)NC(=O)[C@@H](NC(C)=O)[C@@H](C)O)C(C)C)[C@@H](C)O)C(=O)N[C@@H](CCCNC(=N)N)C(=O)N[C@@H](CC(C)C)C(=O)N[C@@H](CC(C)C)C(N)=O [Peptide 19] (Ac-TRVSRTGRSRWRDWSRNFMRLL-NH2)
- MIC S. dublin [1]: 32 µg/mL (≈ 11.1 µM)
- MIC S. aureus [2]: >64 µg/mL
